Results from patent publication US3978071A, “Substituted phenylalkanoic acids and derivatives” (Yoshitomi Pharmaceutical Industries, Ltd., priority 1973, dated 1976).

Columns and labels:
[1] = tested on: carrageenin edema of the hind paw; assay: Anti-inflammatory Action, Carrageenin Edema Method; assay type: in vivo, Donryu-strain male rats; conditions: Rattus norvegicus, po, rats, 1 hour before 1% carrageenin s.c.; paw bulk 2 hours after phlogogen; dose required for 50% inhibition
Method: i. Carrageenin Edema Method
According to the method of Winter et al. (Proc. Soc. Exptl. Biol. Med., 111, 544 (1962)), to one group of 5 Donryu-strain male rats each weighing about 130 g a test solution containing a test compound was administered orally. One hour later 0.05 ml of 1% carrageenin solution as phlogogenic substance was subcutaneously injected to the paw of the hind leg. And 2 hours after the administration of phlogogen the bulk of the paw was measured in order to obtain the increment percentage over that before administration. The ratio of bulk increment between a control group and a test group was calculated as inhibition percentage. The ED50, the dose required for 50% inhibition, was calculated from the dose-response curve.

ultraviolet erythema = assay: Anti-inflammatory Action, Ultraviolet Erythema Method; assay type: in vivo; conditions: Cavia porcellus, light or radiation study, po, guinea pigs, equal amounts 1 hour before and after irradiation; total dose required for 50% efficacy rate
Description: ii. Ultraviolet Erythema Method:
Using guinea pigs weighing 250-450 g, a rubber plate with 3 holes of 7 mm in diameter was fitted to the abdomen, hair of which had been removed in advance, and light was given by a mercury lamp (300 W) at the distance of 15 cm for 150 seconds. Two hours later the degree of erythema formation was marked according to the method of Winder et al. (Arch. Intern. Pharmacodyn., 116, 261 (1958); 1 for distinct erythema, 0.5 for indistinct erythema and 0 for no erythema) and the efficacy rate was calculated, based on the criterion that 1.5 or less of total marks be effective. Equal amounts of the test solution were orally given 1 hour before and after the irradiation, respectively. The ED50, the total dose required for 50% efficacy rate, was calculated from the dose-response curve.

[2] = tested on: o-phenyl-p-benzoquinone induced stretch symptoms; assay: Analgesic Action (Phenylquinone Method); assay type: in vivo, dd-strain male mice; conditions: Mus musculus, po, mice, 1 hour before 0.02% o-phenyl-p-benzoquinone i.p., dose required for 50% inhibition of stretch symptoms (30 minutes)
Method: According to the method of Hendershot et al. (J. Pharmacol. Exptl. Therap., 125, 237 (1959)), to one group of 6 dd-strain male mice each weighing about 20 g a test solution containing a test compound was orally administered and 1 hour later 0.2 ml/20 g of body weight of 0.02% o-phenyl-p-benzoquinone solution was intraperitoneally injected. The frequency of stretch symptoms thus induced was measured for 30 minutes, and compared with that of a control group, and the inhibition percentage (effect) was calculated. The ED50 the dose required for 50% inhibition, was calculated from the dose-response curve.

SMILES	ED50 [1]	ED50 (ultraviolet erythema)	ED50 [2]
CC(C(=O)O)c1ccc(-c2cn3ccccc3n2)c(Cl)c1 (stereo not drawn) [B, 2-[3-chloro-4-(imidazo[1,2-a]pyridin-2-yl)phenyl]propionic acid]	25 mg/kg	1 mg/kg	0.2 mg/kg
CC(C(=O)O)c1ccc(-c2cn3ccsc3n2)c(Cl)c1 (stereo not drawn) [E, 2-[3-chloro-4-(imidazo[2,1-b]thiazol-6-yl)phenyl]propionic acid]	100 mg/kg	5 mg/kg	0.5 to 1 mg/kg
CC(C(=O)O)c1ccc(-c2cn3ccccc3n2)c(F)c1 (stereo not drawn) [C, 2-[3-fluoro-4-(imidazo[1,2-a]pyridin-2-yl)phenyl]propionic acid]	25 mg/kg	2.5 mg/kg	0.1 mg/kg
CC(C(=O)O)c1ccc(-c2cn3ccsc3n2)cc1 (stereo not drawn) [D, 2-[4-(imidazo[2,1-b]thiazol-6-yl)phenyl]propionic acid]	50 mg/kg	2.5 mg/kg	13 mg/kg
CC(C(=O)O)c1ccc(-c2cn3ccccc3n2)cc1 (stereo not drawn) [A, 2-[4-(imidazo[1,2-a]pyridin-2-yl)phenyl]propionic acid]	8 mg/kg	6 mg/kg	0.1 mg/kg
